Patent publication US6986881B1, “Identification of compounds that modify transcriptional responses to hypoxia” (Dana-Farber Cancer Institute, Inc., priority 1999, dated 2006)
Each block holds one molecule with its values, some of them ahead of it. No end group written: not given here.

What was measured:
[1] = tested on: Hep3B cells, Epo-luciferase reporter; assay: Epo-luciferase hypoxia-inducible reporter assay; format: cell-based; settings: overproduction of polypeptide; 1% oxygen 18 hours
Protocol: FIG. 2A is a graph showing the results of luciferase and β-galactosidase assays, in which Hep3B cells were cotransfected with an Epo-luciferase reporter (100 ng), pCMV-LacZ (100 ng), and the indicated expression plasmids (300 ng). Cells were subsequently exposed to either ambient (Normoxia, stippled bars) or 1% (Hypoxia, solid bars) oxygen for 18 hours prior to assay. The results are expressed as corrected relative light units (RLU, mean of three independent transfections ±S.D.).
(§1) Reporter assays. Luciferase and β-galactosidase assays were performed as previously described (Bhattacharya et al., Genes Dev. 13:64–75, 1999). In all cases, luciferase activity was corrected for β-galactosidase activity as an internal control for transfection efficiency and global changes in transcriptional activity. Results are expressed as corrected relative light units (RLU). For each reporter experiment, at least two independent experiments were performed.
(§2) Hypoxia. Hypoxia was achieved by incubating cells in a humidified environment at 37° C. in a Cellstar three gas incubator (Harris) maintained at 10% CO2 and 1% O2. Accurate O2 and CO2 regulation was periodically verified with a Fryrite gas analyzer (Bacharach).

[2] = target: T1, GST-CH1 (amino acids 302–443 of p300) (Homo sapiens, UniProt Q09472); assay: In vitro protein binding assay of IVT Gal4-fused HIF-1α fragments to GST-CH1; settings: Gal4 fusion, translated in vitro
T1 construct: made in house; host or cells: bacteria
T1 sequence (Q09472 302-443): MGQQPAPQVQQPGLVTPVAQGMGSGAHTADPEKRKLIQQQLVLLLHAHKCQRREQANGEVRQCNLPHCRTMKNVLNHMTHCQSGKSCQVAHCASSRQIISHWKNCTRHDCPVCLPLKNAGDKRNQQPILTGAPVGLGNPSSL
From the text: One fifth of the total IVT product used for each binding assay is indicated (Input), along with the amount bound by GST-CH1 (Bound).
The detailed structural requirements for p300/CBP binding to HIF-1α were mapped by in vitro assays utilizing a series of GST-fused deletion mutants centered around the CH1 domain of p300, the primary HIF-1α interacting unit of that protein (Arany et al., Proc. Natl. Acad. Sci. U.S.A. 93:12969–12973, 1996; Kallio et al., EMBO J. 17:6573–6586, 1998). These mutant fusion proteins were assayed for binding to full length, iii vitro translated HIF-1α a zinc-dependent process (FIG. 1B). […] To map the minimal p300-binding domain of HIF-1α, a series of Gal4-fused truncation mutants of the C-terminus were generated. These Gal4 fusion proteins were translated in vitro and probed for their ability to bind to GST-CH1 (amino acids 302–443).
In vitro translation and in vitro protein binding assays. Except where noted, all reagents were from Sigma. In vitro transcription/translation (IVT) was performed in the presence of ^35S-methionine (NEN) using T3 or T7 polymerase coupled with rabbit reticulocyte lysates (TNT, Promega) according to the manufacturer's instructions. GST fusion proteins were produced in, and purified from, bacteria, and binding of IVT proteins was performed as previously described (Grossman et al., Mol. Cell. 2:405–415, 1998). […]

SRC-1 = assay: Gal4-luciferase reporter, p300/CBP dependent transactivation (Gal4-SRC1); format: cell-based; settings: TAD-C polypeptide overexpression, Hep3B cells
Protocol: (§3) FIG. 2B is a graph showing the effect of TAD-C expression on p300/CBP dependent transactivation. Hep3B cells were cotransfected with the indicated thioredoxin-constrained fusion protein expression plasmids (300 ng), the indicated Gal4-fusion proteins (20 ng), Gal4-luciferase reporter (100 ng), and pCMV-LacZ (50 ng). Where indicated, cells were exposed to hypoxia for 18 hours. The results are expressed as corrected RLU (mean of three independent transfections ±S.D.).
as §1

STAT2 = assay: Gal4-luciferase reporter, p300/CBP dependent transactivation (Gal4-STAT2); format: cell-based; settings: TAD-C polypeptide overexpression, Hep3B cells
Protocol: as §3, §1

HIF-1α = assay: Immunoblot for HIF-1α abundance; format: cell-based; settings: hypoxic conditions
Protocol: (§4) Immunoblot, ribonzuclease protection, and cell death assays. Immunoblot analyses for Gal4 (RK5C1, Santa Cruz Biotechnology), p53 (DO-1, Oncogene Research), and HIF-1α (OZ15 (Arany et al., Proc. Natl. Acad. Sci. U.S.A. 93:12969–12973, 1996)) were performed using standard techniques (Ausubel et al., Eds., Current Protocols in Molecular Biology (Wiley-Interscience, New York, 1988)). Total RNA was isolated (RNeasy, Qiagen), and ribonuclease protection assays performed utilizing a multiprobe human angiogenesis kit (RiboQuant, Pharmingen) according to the manufacturer's instructions. Cell death was measured by staining with anti-Annexin V antibody (Pharmingen) and 7-amino-actinomycin D (Pharmingen), and analyzed by flow cytometry according to the manufacturer's instructions.

VEGF mRNA in HepG2 cells = assay: Ribonuclease protection assay for VEGF mRNA; format: cell-based; settings: HepG2, retrovirus MOI 10, both normoxic and hypoxic conditions
Protocol: In this assay, HepG2 cells were infected at an MOI of 10 with retroviruses encoding Gal4 alone or Gal4 fused with wild type or mutant (MUT) TAD-C polypeptide. Cells were exposed to either ambient or 1% (Hypoxia) oxygen for 18 hours prior to preparation of total RNA.
To facilitate expression of the relevant TAD-C and mutant polypeptides, VSV-G pseudotyped retroviruses were engineered to express Gal14 carrier protein alone or Gal4 fused to either wild type or mutant TAD-C polypeptide. HepG2 cells were infected with these retroviruses at a multiplicity of infection (MOI) of 10, exposed to either normal or hypoxic conditions, and VEGF mRNA levels were determined by a ribonuclease protection assay. Equivalent expression of Gal4 and the Gal4 fused polypeptides was regularly achieved in this and related experiments (for example, see FIG. 3A, inset). […] The overall abundance of HIF-1α under hypoxic conditions was not altered by introduction of TAD-C.
Hypoxia. Hypoxia was achieved by incubating cells in a humidified environment at 37° C. in a Cellstar three gas incubator (Harris) maintained at 10% CO2 and 1% O2. […]
Immunoblot, ribonzuclease protection, and cell death assays. […] Cell death was measured by staining with anti-Annexin V antibody (Pharmingen) and 7-amino-actinomycin D (Pharmingen), and analyzed by flow cytometry according to the manufacturer's instructions.

SREBP2 = assay: Gal4-luciferase reporter, p300/CBP dependent transactivation (Gal4-SREBP2); format: cell-based; settings: TAD-C polypeptide overexpression, Hep3B cells
Protocol: as §3, §1

HepG2 cells = assay: Cell death by flow cytometry (Annexin V staining and vital dye exclusion); format: cell-based; settings: for cell survival: versus Gal4 alone
Protocol: FIG. 2D is a graph showing the levels of cell death in an experiment in which HepG2 cells were infected at an MOI of 5 with retrovirus encoding the indicated Gal4 fusion proteins. Cells were exposed to either ambient or 1% oxygen for 36 hours, and then assayed for cell death by flow cytometric analysis using Annexin V staining and vital dye exclusion. The results are expressed as the mean of three independent experiments ±S.E.M. The asterisk denotes statistical significance (p=0.05) in comparison to controls.
as §2
(§5) Cell culture and retroviral infection. Tumor cell lines were obtained from the ATCC, and were cultured in DMEM supplemented with 10% FBS, penicillin, streptomycin, and L-glutamine (Gibco-BRL). Cells in logarithmic growth phase were serially infected 12 hours apart with VSV-G pseudotyped pMMP-Gal4 retroviruses to achieve a final MOI of 5 or 10, depending on the experiment. […] For pBABE-puro-VP16 or pBABE-puro-HIF-VP16, cells were infected at an MOI of <1 and selected with puromycin (2 μg/ml) for 4 days. Cells were allowed to recover for 1 day and then infected at an MOI of 5 with pMMP-Gal4 retroviruses.
as §4

RAR = assay: Gal4-luciferase reporter, p300/CBP dependent transactivation (Gal4-RAR); format: cell-based; settings: TAD-C polypeptide overexpression, Hep3B cells
Protocol: as §3, §1

MDA-MB435S cells = assay: Nude mouse xenograft tumor model, MDA-MB435S; format: in vivo, nude mice; settings: MDA-MB435S cells expressing the polypeptide, versus Gal4 alone or Gal4-mutant
Protocol: FIG. 3B is a graph showing results of the experiments described in reference to FIG. 3A for MDA-MB435S cells.
as §5
Xenograft tumor model. Nude mice (Taconic) were obtained at 6–8 weeks of age and allowed to acclimate for 1 week prior to tumor implantation. Tumor cells were allowed to recover for at least 48 hours after retroviral infection prior to implantation into nude mice. The indicated number of tumor cells was injected subcutaneously and bilaterally into the flanks of mice. Tumors were measured with calipers, and tumor volume was calculated as 0.5×L×W^2. For each cell line, at least two independent experiments were performed. […]

HCT116 cells = assay: Nude mouse xenograft tumor model, HCT116; format: in vivo, nude mice; settings: for histological examination of the injection site / tumor: HCT116, 3 weeks of growth
From the text: FIG. 3A is a graph showing the in vivo effect of TADC expression. HCT116 cells were infected at an MOI of 5 with retroviruses encoding Gal4 alone (circle), Gal4 fused with mutant TAD-C polypeptide (Gal4-MUT, square) or with wild type TAD-C polypeptide (triangle). A total of 4×10^6 cells were implanted subcutaneously into nude mice. The results are expressed as the mean ±S.D. of 8–10 independent tumors.
FIGS. 4A and 4B are a series of photographs showing that the in vivo effect of TAD-C expression can be rescued by a CH1-independent HIF-1α allele. Tumors arising from HCT116 cells infected with retrovirus encoding Gal4 fused with mutant (MUT) or wild type TAD-C polypeptide at an MOI of 5 were excised after 3 weeks of growth. Paraffin sections were stained with H&E or immunostained for Gal4 or CD31/PECAM. The subcutaneous tissue (SQ), tumor (Tum), and necrotic areas (Nec) are indicated.
FIG. 4C is a graph showing the results of experiments in which HCT116 cells were infected with either pBABE-puro-VP16 (VP16) or pBABE-puro-HIF-VP16 (HIFVP), and selected with puromycin. These cells were then infected with retrovirus encoding either Gal4-MUT or Gal4-TADC at an MOI of 5. A total of 6×10^6 cells were implanted in nude mice. Results are the mean of 8 independent tumors ±S.D.
as §5
Xenograft tumor model. Nude mice (Taconic) were obtained at 6–8 weeks of age and allowed to acclimate for 1 week prior to tumor implantation. Tumor cells were allowed to recover for at least 48 hours after retroviral infection prior to implantation into nude mice. The indicated number of tumor cells was injected subcutaneously and bilaterally into the flanks of mice. Tumors were measured with calipers, and tumor volume was calculated as 0.5×L×W^2. For each cell line, at least two independent experiments were performed. Where indicated, tumors were excised and fixed in 4% paraformaldehyde in phosphate buffered saline or minced and lysed in RIPA/300 buffer (50 mM Tris-HCl (pH 8.0), 300 mM NaCl, 1% NP40, 0.5% DOC, 0.1% SDS, 1 mM DTT, protease inhibitors). Immunostaining with anti-Gal4 (IKE, Santa Cruz Biotechnology) or anti-CD31 (MEC13.3, Pharmingen) was performed using the Vectastain ABC Elite system (Vector) according to the manufacturer's instructions.

[3] = target: HIF-1α/p300 CH1 interaction (Homo sapiens, UniProt Q09472); settings: cited from earlier work
Sequence of HIF-1α/p300 CH1 interaction (Q09472 whole entry): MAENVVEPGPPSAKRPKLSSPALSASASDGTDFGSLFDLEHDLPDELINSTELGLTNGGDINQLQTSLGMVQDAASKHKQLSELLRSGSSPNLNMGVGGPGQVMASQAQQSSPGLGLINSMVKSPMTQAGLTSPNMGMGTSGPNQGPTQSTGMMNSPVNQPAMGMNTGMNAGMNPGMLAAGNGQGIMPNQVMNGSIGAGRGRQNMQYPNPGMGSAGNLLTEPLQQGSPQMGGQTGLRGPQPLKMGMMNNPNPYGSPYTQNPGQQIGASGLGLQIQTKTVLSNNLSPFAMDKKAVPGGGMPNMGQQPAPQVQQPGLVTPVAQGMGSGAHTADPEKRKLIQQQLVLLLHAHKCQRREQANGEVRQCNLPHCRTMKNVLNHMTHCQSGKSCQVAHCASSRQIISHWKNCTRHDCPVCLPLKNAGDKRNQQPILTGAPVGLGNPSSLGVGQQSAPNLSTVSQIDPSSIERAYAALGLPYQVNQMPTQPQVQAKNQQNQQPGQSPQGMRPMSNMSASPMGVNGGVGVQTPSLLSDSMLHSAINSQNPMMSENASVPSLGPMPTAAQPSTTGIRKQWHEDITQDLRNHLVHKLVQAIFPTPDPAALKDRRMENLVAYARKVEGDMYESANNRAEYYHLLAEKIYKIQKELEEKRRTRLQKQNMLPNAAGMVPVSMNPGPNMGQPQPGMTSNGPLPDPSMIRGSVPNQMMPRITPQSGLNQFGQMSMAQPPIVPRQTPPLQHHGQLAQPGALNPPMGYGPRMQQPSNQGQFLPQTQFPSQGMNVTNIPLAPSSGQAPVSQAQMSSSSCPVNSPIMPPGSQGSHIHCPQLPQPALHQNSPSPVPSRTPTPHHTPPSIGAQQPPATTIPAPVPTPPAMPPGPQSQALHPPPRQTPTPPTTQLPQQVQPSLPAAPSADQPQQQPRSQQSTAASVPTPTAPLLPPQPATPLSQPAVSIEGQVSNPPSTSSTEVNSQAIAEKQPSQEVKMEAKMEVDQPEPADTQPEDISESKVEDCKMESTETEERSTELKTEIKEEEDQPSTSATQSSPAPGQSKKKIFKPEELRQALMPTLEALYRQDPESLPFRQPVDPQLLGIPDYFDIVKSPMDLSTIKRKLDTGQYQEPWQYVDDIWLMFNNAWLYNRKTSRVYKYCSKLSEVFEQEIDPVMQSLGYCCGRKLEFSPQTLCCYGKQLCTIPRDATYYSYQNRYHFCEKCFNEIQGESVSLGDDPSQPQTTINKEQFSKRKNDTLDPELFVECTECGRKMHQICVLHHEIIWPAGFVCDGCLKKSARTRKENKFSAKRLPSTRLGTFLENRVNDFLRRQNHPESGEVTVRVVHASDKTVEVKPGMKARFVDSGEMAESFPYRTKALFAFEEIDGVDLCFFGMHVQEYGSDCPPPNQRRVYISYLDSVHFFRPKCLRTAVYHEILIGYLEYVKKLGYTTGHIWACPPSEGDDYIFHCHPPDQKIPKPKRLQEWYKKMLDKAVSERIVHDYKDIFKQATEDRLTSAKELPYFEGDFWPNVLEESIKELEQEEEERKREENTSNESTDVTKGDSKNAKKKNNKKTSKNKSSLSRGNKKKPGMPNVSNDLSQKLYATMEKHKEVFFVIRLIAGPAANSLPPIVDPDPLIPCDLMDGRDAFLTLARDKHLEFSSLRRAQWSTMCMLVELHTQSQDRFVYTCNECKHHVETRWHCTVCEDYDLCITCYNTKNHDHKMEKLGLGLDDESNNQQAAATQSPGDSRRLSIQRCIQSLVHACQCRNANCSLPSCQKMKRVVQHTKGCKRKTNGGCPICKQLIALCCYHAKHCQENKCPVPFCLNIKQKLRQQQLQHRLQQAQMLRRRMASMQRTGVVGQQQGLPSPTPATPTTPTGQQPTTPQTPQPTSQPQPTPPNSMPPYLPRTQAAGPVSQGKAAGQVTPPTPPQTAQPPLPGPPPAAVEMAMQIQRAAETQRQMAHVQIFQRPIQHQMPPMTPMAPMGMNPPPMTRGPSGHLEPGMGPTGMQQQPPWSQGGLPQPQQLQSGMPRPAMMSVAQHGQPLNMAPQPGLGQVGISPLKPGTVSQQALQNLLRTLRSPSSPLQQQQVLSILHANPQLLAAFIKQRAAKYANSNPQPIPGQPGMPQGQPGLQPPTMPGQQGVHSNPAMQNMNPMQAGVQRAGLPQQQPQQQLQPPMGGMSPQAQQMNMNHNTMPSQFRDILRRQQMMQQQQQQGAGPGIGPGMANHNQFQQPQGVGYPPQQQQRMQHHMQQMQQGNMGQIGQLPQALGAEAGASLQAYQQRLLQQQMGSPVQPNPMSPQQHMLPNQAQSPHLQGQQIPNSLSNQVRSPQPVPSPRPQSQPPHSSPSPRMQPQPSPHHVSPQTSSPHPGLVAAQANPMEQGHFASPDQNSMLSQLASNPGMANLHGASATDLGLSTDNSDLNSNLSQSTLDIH

Molecule: CH1: polypeptide corresponding to the minimal HIF-1α binding domain of p300 (CH1 domain, amino acids 302–418)
hypoxia-inducible reporter activity [1]: attenuation

binding to GST-CH1 [2]: necessary and sufficient for binding
effect on SRC-1 transcriptional activity (SRC-1): no effect
transcriptional activity of STAT2 (STAT2): inhibit
effect on SREBP2 transcriptional activity (SREBP2): no effect
effect on RAR transcriptional activity (RAR): no effect
Molecule: TAD-C polypeptide: wild type TAD-C polypeptide (amino acids 786–826 of HIF-1α), expressed fused to Gal4 or thioredoxin-constrained
hypoxia-inducible reporter activity [1]: attenuation
overall abundance of HIF-1α (HIF-1α): not altered
VEGF mRNA abundance (VEGF mRNA in HepG2 cells): reproducibly diminished
cell death (HepG2 cells; HepG2, hypoxic conditions (1% oxygen, 36 hours), versus Gal4 alone or mutant): slightly, but significantly, increased
cell growth (HepG2 cells; HepG2, normoxic conditions): not affected
cell survival (HepG2 cells; HepG2, normoxic conditions): essentially the same
tumor growth (MDA-MB435S cells): significantly and reproducibly attenuated
histological examination of the injection site / tumor (HCT116 cells): large areas of central necrosis with a small rim of viable tumor cells
tumor growth (HCT116 cells; HCT116, coexpression of HIF-VP16, TAD-C versus mutant polypeptide): identical tumor growth
tumor growth (HCT116 cells; HCT116, coexpression of unfused VP16, versus mutant polypeptide): attenuated
tumor growth (HCT116 cells; HCT116 cells expressing the polypeptide, versus Gal4 alone or Gal4-mutant): significantly and reproducibly attenuated

binding to GST-CH1 [2]: unable to bind
Molecule: mutant TAD-C polypeptide: eight residue truncated mutant of TAD-C (amino acids 786–818 of HIF-1α), unable to bind GST-CH1 (SMDESGLPQLTSYDCEVNAPIQGSRNLLQGEEL; also: fused to Gal4; UniProt Q16665 786-818, looked up, fragment)
hypoxia-inducible reporter activity [1]: failed to exert a dominant-negative effect
cell survival (HepG2 cells; HepG2, normoxic conditions): essentially the same
histological examination of the injection site / tumor (HCT116 cells): small areas of necrosis, but vast areas of viable tumor

B1: p35srj: protein with negative regulatory function on the HIF-1 pathway; binds p300/CBP, blocks HIF-1α/p300 CH1 interaction (protein, UniProt Q99967 1-270, looked up)
Cbp/p300-interacting …: MADHMMAMNHGRFPDGTNGLHHHPAHRMGMGQFPSPHHHQQQQPQHAFNALMGEHIHYGAGNMNATSGIRHAMGPGTVNGGHPPSALAPAARFNNSQFMGPPVASQGGSLPASMQLQKLNNQYFNHHPYPHNHYMPDLHPAAGHQMNGTNQHFRDCNPKHSGGSSTPGGSGGSSTPGGSGSSSGGGAGSSNSGGGSGSGNMPASVAHVPAAMLPPNVIDTDFIDEEVLMSLVIEMGLDRIKELPELWLGQNEFDFMTDFVCKQQPSRVSC
HIF-1 transactivation [3]: inhibits
